Data set [1] concerns PGE2 production in IL-1β-treated mouse articular chondrocytes. Nature of the data set: PGE2 ELISA in IL-1β-treated chondrocytes. The data set is classed as cell-based. The settings on record: NCD 10, 50, 100 µM, dose-dependent. The procedure: NCD was supplied by Benobio Co (Gyeonggi-do, Korea), and IL‐1β was purchased from GenScript (Piscataway, NJ, USA). NCDs were dissolved in phosphate-buffered saline (PBS) for oral administration or IA injection.
PGE2 expression was determined by enzyme-linked immunosorbent assay (ELISA) using a PGE2 Immunoassay Kit (R&D Systems, Minneapolis, MN, USA). The levels of PGE2 in the conditioned medium of articular chondrocytes were determined. Collagenase activity was measured using a VICTOR X3 Microplate Reader (PerkinElmer, Waltham, MA, USA) at the excitation/emission wavelengths of 490/530 nm following the protocol provided by the manufacturer.

A further data set concerns the target T1, BRD2 BD2 (Homo sapiens, UniProt P25440).
T1 construct: biotinylated BRD2 BD1, BRD2 BD2; biotin (biotinylated protein); made in house; host or cells: Escherichia coli BL21(DE3)
Nature of the data set: Biosensor binding kinetics assay (Octet), BRD2 BD2. The method, then: Binding kinetics were assessed using the Octet® R2 system (Sartorius, Göttingen, Germany). Superstreptavidin biosensors were loaded with biotinylated BRD2 BD1, BRD2 BD2, BRD3 BD1, BRD3 BD2, BRD4 BD1, BRD4 BD2, or biotin alone (as a negative control) in PBST buffer (phosphate-buffered saline containing 0.02% Tween 20 and 5% DMSO). The sensors were then dipped into compound solutions for 10 min. To evaluate association kinetics (kon), each sensor was exposed to serial dilutions of the protein for 180 s, followed by dipping them into PBST buffer to assess dissociation kinetics (koff). For control, a separate sensor loaded with the compound was dipped into PBST alone. Competition binding assays were performed by exposing the compound-loaded sensor to mixtures of proteins and test compounds.
Background: Biolayer interferometry detects binding as a change in optical thickness at a sensor tip.

A short description of data set [2]: PK analysis after intravenous administration in SD rats. The settings on record: for AUC(0-t) / Cmax / half-life: male, rat, plasma. Set-up: AUC: unit not given here. The data set is classed as in vivo, rat. The method, then:
SD rats (male, 6 weeks old) were obtained from Orient Bio (Seoul, Korea) and housed under pathogen-free conditions. All animal procedures were conducted in accordance with the guidelines of the Animal Care Facility at Biotoxtech Co., Ltd. (Chungcheongbuk-do, Korea). NCD was administered intravenously (IV) to SD rats at doses of 5, 10, or 20 mg/kg to evaluate its pharmacokinetics. Blood samples were collected from the jugular vein at various time points, mixed with 3.8% (w/v) sodium citrate, and centrifuged at 8,000 × g for 30 min to obtain plasma. The plasma samples were then mixed with acetonitrile (33%, v/v), vortexed for 5 min, and centrifuged at 13,000 × g for 10 min. The concentration of NCD in plasma was determined using high-performance liquid chromatography (HPLC; Shimadzu, Japan) equipped with a UV detector. Pharmacokinetic parameters were calculated using Microsoft Excel ([31]).

Each structure is given as a SMILES string. pKd: −log10 of the molar value.

T1 sequence (P25440 344-453 limits assumed): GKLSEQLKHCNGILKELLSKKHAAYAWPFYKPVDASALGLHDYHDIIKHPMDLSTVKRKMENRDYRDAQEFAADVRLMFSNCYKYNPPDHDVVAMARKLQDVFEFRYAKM

Usually pKd stands for −log10 of the Kd, conventionally taken in molar units. For orientation: AUC(0-t) means exposure summed from dosing to a finite time, without extrapolation to infinity. By Cmax is commonly meant the highest concentration seen after dosing. Usually half-life stands for the time in which the quantity being followed falls by half. On to `CNC(=O)CC1C(=O)NCCN1Cc1ccc(-c2ccccc2-c2cccc3c2CN(C)C3=O)o1` (stereo not shown) [NCD, N-methyl-2-(1-((5-(2-(2-methyl-1-oxoisoindolin-4-yl)phenyl)furan-2-yl)methyl)-3-oxopiperazin-2-yl)acetamide], for which the PGE2 production result in data set [1] was “significantly decreased”. Besides, the pKd at BRD2 BD2 was 6.98. In data set [2] (5 mg/kg), this compound showed an AUC of 631.83, an AUC(0-t) of 632 ng·h/mL, a Cmax of 1110 ng/mL and a half-life of 24.6 min. In data set [2] (20 mg/kg), this compound showed an AUC of 4526.66, an AUC(0-t) of 4530 ng·h/mL, a Cmax of 4150 ng/mL and a half-life of 45.6 min. In data set [2] (10 mg/kg), the AUC(0-t) came to 1730 ng·h/mL, the peak level (Cmax) was 2560 ng/mL and the half-life is 35.4 min.

The record behind these values is PMC12350126, “A novel carboxamide bromodomain inhibitor attenuates osteoarthritis via epigenetic repression of NF-κB and MAPK signaling” (Frontiers in Immunology, 2025).
